Test results as given in PubChem BioAssay (NCI).
Several values for one entry are separate records, joined by “and”; a condition that tells them apart may be missing. Equal entries are not always repeated.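 Growth conditions: 96-well plates. Treatment: test compound, 48 hours, 5 concentrations. Analysis: linear interpolation between bracketing concentrations; unreached endpoints set to highest concentration. At the GI50, growth is halved. TGI: concentration producing complete growth inhibition.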

Columns and labels:
Assay in all cases: NCI tumour cell line growth inhibition, 48 h
HS 578T breast = tested on: HS 578T breast
MALME-3M melanoma = tested on: MALME-3M melanoma
NCI-H460 lung = tested on: NCI-H460 lung
NCI/ADR-RES ovarian = tested on: NCI/ADR-RES ovarian
SF-295 CNS = tested on: SF-295 CNS
SN12C renal = tested on: SN12C renal
SK-MEL-5 melanoma = tested on: SK-MEL-5 melanoma
COLO 205 colon = tested on: COLO 205 colon
RPMI-8226 leukemia = tested on: RPMI-8226 leukemia
MCF7 breast = tested on: MCF7 breast

SMILES	GI50 (HS 578T breast) [µM]	TGI (HS 578T breast) [µM]	GI50 (MALME-3M melanoma) [µM]	TGI (MALME-3M melanoma)	GI50 (NCI-H460 lung) [µM]	TGI (NCI-H460 lung)	GI50 (NCI/ADR-RES ovarian) [µM]	TGI (NCI/ADR-RES ovarian) [µM]	GI50 (SF-295 CNS) [µM]	TGI (SF-295 CNS) [µM]	GI50 (SN12C renal) [µM]	TGI (SN12C renal) [µM]	TGI (SK-MEL-5 melanoma)	TGI (COLO 205 colon)	TGI (RPMI-8226 leukemia) [µM]	GI50 (COLO 205 colon) [µM]	GI50 (RPMI-8226 leukemia) [µM]	GI50 (SK-MEL-5 melanoma) [µM]	GI50 (MCF7 breast) [µM]	TGI (MCF7 breast) [µM]
COc1cc(-c2nn3c(/C=C4/C(=O)Nc5ccccc54)c(-c4ccc(C)cc4)nc3s2)cc(OC)c1OC	0.505	7.49	0.765	4.78 µM	1.98	> 100 µM	3.05	> 100	5.04	31.1	5.26	> 100								
C=CCC1OC(C)(C)Oc2ccc(OCOCCOC)cc21 (centres undefined)				> 100 µM		> 100 µM				> 100		> 100	> 100 µM							
c1ccc(SC2(Sc3ccccc3)CCCC2)cc1						> 100 µM				> 100		> 100	> 100 µM	> 100 µM	> 100					
N=C(c1ccccc1)N(c1ccccc1)c1ccccc1				94.6 µM		> 100 µM				> 100		> 100		> 100 µM						
COc1cc2c(cc1O)C=NCC2				> 100 µM		> 100 µM				> 100		> 100	> 100 µM	> 100 µM	> 100					
CCCCCCCCCCCOC(=S)NC(C)C				49.5 µM		50.7 µM				40.7		30.1	31.2 µM		33.2					
C=C1C(=O)O[C@H]2[C@H]1CC/C(CNC(=O)/C=C/c1ccc(Br)cc1)=C\CC[C@@]1(C)O[C@@H]21	1.44	4.43	1.33	2.78 µM	1.63	3.3 µM	2.59	10.5	2.16	5.81	1.22	3.58	2.96 µM	2.75 µM	3.26	0.987	0.448	1.6		
CC1=C([Se]CC(OC(=O)[C@@H](CSSC(C)(C)C)NC(=O)OC(C)(C)C)C(=O)NC(C)(C)C)C(=O)c2ccccc2C1=O (some centres undefined)	1.31	2.69	1.18	2.41 µM	0.364	1.32 µM			1.22	3.19	1.37	2.74	2.94 µM	3.15 µM		1.67		1.59	1.46	3.12
CC1CC2C3CC(F)C4=CC(=O)C=CC4(C)C3(F)C(O)CC2(C)C1(O)C(=O)COC(=O)C(C)(C)C (centres undefined)				> 100 µM		> 100 µM				> 100			> 100 µM	> 100 µM	> 100					
O=C(O)c1ccccc1Cc1ccco1				> 100 µM		> 100 µM				> 100		> 100	> 100 µM	> 100 µM	> 100					
O=C(c1ccc2ccccc2c1O)N1CCCCC1		> 100				> 100 µM		> 100		> 100			> 100 µM	> 100 µM	95.9					> 100
O=C(NCCCCCCCCNC(=O)c1cnc2ccccc2n1)c1cnc2ccccc2n1				> 100 µM		> 100 µM				> 100		> 100	> 100 µM	> 100 µM	> 100					
Nc1nc(CCC(=O)Nc2cccc(C(F)(F)F)c2)cc(-c2cccc3ccccc23)n1				> 100 µM		> 100 µM				> 100		> 100	> 100 µM	> 100 µM						
CCOc1ccc(NC(=O)CC2SC(=Nc3ccc(Cl)cc3)NC2=O)cc1 (centres undefined)				> 100 µM		> 100 µM				> 100		> 100	> 100 µM	> 100 µM	> 100					
CC1=C(C(=O)NCc2ccccc2)C(c2ccc(C3C(C(=O)NCc4ccccc4)=C(C)NC(C)=C3C(=O)NCc3ccccc3)cc2)C(C(=O)NCc2ccccc2)=C(C)N1				36.3 µM		> 100 µM				38.2		20.5	30.9 µM	21.3 µM	> 100					
O=C(O)CN(c1ccccc1)S(=O)(=O)c1ccc(NC(=O)c2ccccc2)cc1				> 100 µM		> 100 µM						> 100		> 100 µM	> 100					
CC1[C@@H]2[C@@H](C=C3C4CCC5Cc6nc7c(nc6C[C@@]5(C)C4C[C@H](O)[C@]32CO)CC2CCC3C4=C[C@H]5O[C@@]6(O[C@@](C)(CO)C[C@@H]6O)C(C)[C@@]5(O)[C@]4(C)[C@@H](O)CC3[C@]2(C)C7)O[C@]12CCC(C)(C)O2 (some centres undefined)			0.00982	0.722 µM and 0.183 µM	0.000713	0.132 µM and 0.104 µM		> 3.65	< 0.000365		> 3.65	> 3.65	0.134 µM and 0.16 µM	0.566 µM and 0.138 µM		0.0423	< 0.000365	0.00864		0.505
CC[P+](C)(Cc1ccccc1)c1ccccc1 (centres undefined)				> 100 µM		> 100 µM				> 100		> 100	> 100 µM	> 100 µM	> 100					

SMILES	GI50 (HS 578T breast) [µM]	TGI (HS 578T breast) [µM]	GI50 (MALME-3M melanoma) [µM]	TGI (MALME-3M melanoma)	GI50 (NCI-H460 lung) [µM]	TGI (NCI-H460 lung)	GI50 (NCI/ADR-RES ovarian) [µM]	TGI (NCI/ADR-RES ovarian) [µM]	GI50 (SF-295 CNS) [µM]	TGI (SF-295 CNS) [µM]	GI50 (SN12C renal) [µM]	TGI (SN12C renal) [µM]	TGI (SK-MEL-5 melanoma)	TGI (COLO 205 colon)	TGI (RPMI-8226 leukemia) [µM]	GI50 (COLO 205 colon) [µM]	GI50 (RPMI-8226 leukemia) [µM]	GI50 (SK-MEL-5 melanoma) [µM]	GI50 (MCF7 breast) [µM]	TGI (MCF7 breast) [µM]
FC(F)(F)C1(Cl)C(c2ccccc2)=C1c1ccccc1				28.5 µM		30.4 µM				28.1		29.3	24 µM	30.3 µM	> 100					
CCC(C)CN1C(=O)NC(C)(Cc2ccccc2)C1=O (centres undefined)				> 100 µM		> 100 µM				> 100		> 100	> 100 µM	> 100 µM						
CC1=CC2CC(C)=C(CC[C@]3(C)CC[C@H]([C@@H](C)C(=O)O)OO3)C(C)(C)C2CC1 (some centres undefined)				2.02 µM		0.393 µM				2.67		1.9	2.52 µM	1.36 µM						
COc1ccc(S(=O)(=O)NC(C)C(=O)O)cc1 (centres undefined)				> 100 µM		> 100 µM				> 100		> 100	> 100 µM	> 100 µM	> 100					
CN(C)c1ccc2c(c1)C(=O)N(OS(=O)(=O)c1ccc([N+](=O)[O-])cc1)C2=O				> 100 µM		> 100 µM				62.7		56.4	> 100 µM	54.6 µM						
CC1=CCC[C@@]2(C)C(CC[C@@H]2C(C)/C=C/C(C)C)c2ccc(cc2C(=O)O)C[C@@H](O)CC1 (some centres undefined)				37.7 µM		20.1 µM				21.7		30.4	12.5 µM		19.7					
Cc1ccc(C)c(NC(=O)C(=O)CC(=O)C2CCOC2=O)c1 (centres undefined)				> 100 µM		> 100 µM				> 100		> 100	> 100 µM	> 100 µM	> 100					
CCC1(C)NN=c2s/c(=C/c3ccc(OC)cc3)c(=O)n2N1 (centres undefined)				> 100 µM		> 100 µM				> 100		> 100	> 100 µM	> 100 µM						
N#C/C(=C\c1ccccc1O)C(N)=O				> 100 µM		> 100 µM				> 100		> 100	> 100 µM	> 100 µM	> 100					
COC(=O)Cc1cc(OC)c(OC)cc1Br				> 100 µM		> 100 µM				> 100		> 100		> 100 µM	> 100					
CCOc1ccccc1NC(=O)CCC(=O)OC				> 100 µM		> 100 µM				> 100		> 100	> 100 µM	> 100 µM	> 71.3					
CC(=O)N1CCN(C2=Nc3ccccc3CO2)C1=S			26	89 µM	70.5	> 100 µM	> 100	> 100	43.1	> 100	> 100	> 100	48.4 µM	> 100 µM	> 100	> 100	41.4	20.4	38.2	> 100
O=C(CC1=Nc2nnc(-c3nnc4n3C(=O)C(CC(=O)c3cccnc3)=N4)n2C1=O)c1cccnc1				> 100 µM		> 100 µM				> 100		> 100	> 100 µM	> 100 µM	> 100					
COc1ccc(/C(=N/NC(N)=O)C2(O)C(=O)Nc3ccc([N+](=O)[O-])cc32)cc1 (centres undefined)				> 10 µM		39.4 µM						> 10	77.2 µM	53.4 µM	74.1					
N#Cc1cccc(N2C(=O)c3c(c(-c4ccccc4)c(-c4ccc(Sc5ccc(-c6c(-c7ccccc7)c7c(c(-c8ccccc8)c6-c6ccccc6)C(=O)N(c6cccc(C#N)c6)C7=O)cc5)cc4)c(-c4ccccc4)c3-c3ccccc3)C2=O)c1				> 100 µM		> 100 µM				> 100		> 100	> 100 µM	> 100 µM	> 100					
Cc1cccc(C(=O)c2cccc3ccccc23)c1C(=O)O				> 100 µM		> 100 µM				> 100		> 100	> 100 µM	80 µM	> 100					
COc1cccc([C@H]2CC(=O)c3cc4c(cc3N2)OCO4)c1		83.3					0.036		0.0958	> 100	0.161	> 100	0.226 µM	1.22 µM	1.01	0.0367	0.0608	0.0271	0.0568	> 100
